Results taken from paper PMC4468202, “Improved Visualization and Specific Binding for Metabotropic Glutamate Receptor Subtype 1 (mGluR1) Using [^11C]ITMM with Ultra-High Specific Activity in Small-Animal PET” (PLoS ONE, 2015).
Where two headings read alike, the source gives them in different places.

What was measured:
[1] = Metabolite analysis: fraction of unchanged [^11C]ITMM in the plasma; type: in vivo, rat; details: for unchanged [^11C]ITMM in the plasma: the two SAs
Description: (§1) A bolus (0.5 mL) of [^11C]ITMM with conventional or ultra-high SA was injected for 10 s via a catheter inserted in the tail vein. Dynamic emission scans in three-dimensional list mode were performed for 90 min (10 s x 12 frames, 20 s x 3 frames, 30 s x 3 frames, 60 s x 3 frames, 150 s x 3 frames, and 300 s x 15 frames). For counting radioactivity, blood samples were manually acquired at intervals of 10 s (0.05 mL for 50 s), 1-min intervals (0.05 mL for 5 min), and then at 10 (0.05 mL), 15 (0.2 mL), 30 (0.3 mL), 60 (0.4 mL), and 90 min (0.5 mL) after the PET scan started. For metabolite analysis, six samples of blood were obtained at 1 (0.02 mL), 5 (0.02 mL), 15 (0.05 mL), 30 (0.1 mL), 60 (0.2 mL), and 90 min (0.3 mL) after the injection. Blood samples were centrifuged at 13,000g at 4°C to separate the plasma. Levels of radioactivity in the whole blood and plasma were counted using a 1480 Wizard auto-gamma scintillation counter (Perkin-Elmer, Waltham, MA, USA). The radioactivity was corrected for decay.
Metabolite analysis was performed as described previously. Briefly, whole blood samples were treated to separate the plasma, which was deproteinized with an equivalent amount of acetonitrile. An aliquot of the supernatant obtained from the plasma was analyzed by HPLC with a radiation detector [23]. Plasma protein binding was not determined in the present study. The time curves for the fraction of unchanged [^11C]ITMM in the plasma were fitted using three exponential equations, and subsequently used for kinetic analysis.

[2] = tested on: mGluR1; set-up: method as in PMID 23804329; details: cited from earlier work; for total distribution volume (V T): human brain
[3] = target: T1, mGluR1 (Rattus norvegicus, UniProt P23385); set-up: from tissue; host or cells: cerebellum homogenate; method as in PMID 22316010; details: affinity for mGluR1; cited from earlier work
[4] = target: T1, mGluR1; assay: Small-animal PET with [^11C]ITMM: time-activity curves, radioactive uptake (SUV) in brain regions; type: in vivo; set-up: from tissue; host or cells: living SD rat brain (in vivo PET)
Description: Subsequently, a SD rat was secured in a custom-designed chamber and placed in a small-animal PET scanner (Inveon, Siemens Medical Solutions, Knoxville, TN, USA). Body temperature was maintained using a 40°C water circulation system (T/Pump TP401, Gaymar Industries, Orchard Park, NY, USA). A 24-gauge intravenous catheter (Terumo Medical Products, Tokyo, Japan) was placed in the tail vein of the rat for a bolus injection.
as §1
PET dynamic images were reconstructed with filtered back projection using a Hunning filter with a Nyquist cut-off of 0.5 cycle/pixel. PET/MRI fused images were acquired by PMOD version 3.4 (PMOD Technologies, Zurich, Switzerland). To generate the time-activity curves (TACs) of specified brain regions, volumes of interest (VOIs) were drawn encompassing the cerebellum, hippocampus, thalamus, striatum, cingulate cortex, substantia nigra, and pons. The radioactivity was decay-corrected to the injection time and is expressed as the standardized uptake value (SUV), which was normalized to the injected radioactivity and body weight. SUV was calculated according to the following formula: SUV = (radioactivity per milliliter tissue / injected radioactivity) × gram body weight.

[5] = cingulate cortex, conventional SA
[6] = cingulate cortex, ultra-high SA
[7] = substantia nigra, conventional SA
[8] = substantia nigra, ultra-high SA

T1 sequence (P23385 19-1199): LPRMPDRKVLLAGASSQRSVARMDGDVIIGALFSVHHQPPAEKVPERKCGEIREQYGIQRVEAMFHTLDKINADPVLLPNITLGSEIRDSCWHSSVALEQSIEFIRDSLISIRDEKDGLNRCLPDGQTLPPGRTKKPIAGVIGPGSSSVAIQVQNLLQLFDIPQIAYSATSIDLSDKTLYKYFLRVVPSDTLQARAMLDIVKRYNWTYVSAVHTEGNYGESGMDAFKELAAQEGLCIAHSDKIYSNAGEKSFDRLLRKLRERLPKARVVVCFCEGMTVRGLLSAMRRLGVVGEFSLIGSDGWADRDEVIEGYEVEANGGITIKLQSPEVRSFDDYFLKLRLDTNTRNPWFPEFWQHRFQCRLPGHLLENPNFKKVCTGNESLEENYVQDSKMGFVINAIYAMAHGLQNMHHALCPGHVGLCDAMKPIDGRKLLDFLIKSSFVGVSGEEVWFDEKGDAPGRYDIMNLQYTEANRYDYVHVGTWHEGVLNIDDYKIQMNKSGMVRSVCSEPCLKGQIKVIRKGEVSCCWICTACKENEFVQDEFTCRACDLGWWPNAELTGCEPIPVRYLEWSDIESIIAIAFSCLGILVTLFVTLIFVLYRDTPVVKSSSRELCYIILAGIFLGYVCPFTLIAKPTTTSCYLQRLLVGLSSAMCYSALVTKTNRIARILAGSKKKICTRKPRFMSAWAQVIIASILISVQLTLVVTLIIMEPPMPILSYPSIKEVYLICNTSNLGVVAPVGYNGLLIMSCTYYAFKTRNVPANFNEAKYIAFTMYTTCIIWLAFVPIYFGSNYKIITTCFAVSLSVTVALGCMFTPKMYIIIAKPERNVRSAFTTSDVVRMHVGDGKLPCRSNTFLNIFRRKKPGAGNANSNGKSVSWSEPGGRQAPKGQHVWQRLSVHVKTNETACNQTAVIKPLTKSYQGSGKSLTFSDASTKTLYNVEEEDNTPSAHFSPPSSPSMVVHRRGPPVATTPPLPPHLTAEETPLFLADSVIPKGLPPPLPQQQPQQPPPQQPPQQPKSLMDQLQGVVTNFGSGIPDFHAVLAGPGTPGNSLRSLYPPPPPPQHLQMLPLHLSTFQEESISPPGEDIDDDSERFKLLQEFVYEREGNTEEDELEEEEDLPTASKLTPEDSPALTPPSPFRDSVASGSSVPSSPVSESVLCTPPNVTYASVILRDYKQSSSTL

With CC(C)Nc1cc(-c2csc(N(C)C(=O)c3ccc(O[11CH3])cc3)n2)ncn1 [[^11C]ITMM, N-[4-[6-(isopropylamino)pyrimidin-4-yl]-1,3-thiazol-2-yl]-4-[^11C]methoxy-N-methyl-benzamide] the “Unchanged form in the plasma” value ([1]; 1 min after injection, conventional SA) was 95.2 ± 1.2%, the “Unchanged form in the plasma” value ([1]; 1 min after injection, ultra-high SA) was 97.3 ± 0.6% and the “Unchanged form in the plasma” value ([1]; 5 min after injection, conventional SA) was 74.0 ± 2.1%. For the same compound, the “Unchanged form in the plasma” value ([1]; 5 min after injection, ultra-high SA) was 77.1 ± 3.2%, the “Unchanged form in the plasma” value ([1]; 15 min after injection, conventional SA) was 53.7 ± 2.6% and the “unchanged [^11C]ITMM in the plasma” value ([1]; 15 min after injection) was “roughly 55%”. The “Unchanged form in the plasma” value ([1]; 15 min after injection, ultra-high SA) was 56.2 ± 4.0%, the “Unchanged form in the plasma” value ([1]; 30 min after injection, conventional SA) was 36.8 ± 2.6% and the “Unchanged form in the plasma” value ([1]; 30 min after injection, ultra-high SA) was 40.0 ± 4.0%. For the same compound, the “Unchanged form in the plasma” value ([1]; 60 min after injection, conventional SA) was 21.7 ± 2.0%, the “Unchanged form in the plasma” value ([1]; 60 min after injection, ultra-high SA) was 24.7 ± 2.9% and the “Unchanged form in the plasma” value ([1]; 90 min after injection, conventional SA) was 15.7 ± 1.3%. For the same compound, the “unchanged [^11C]ITMM in the plasma” value ([1]; 90 min after injection) was “roughly 15%”, the “Unchanged form in the plasma” value ([1]; 90 min after injection, ultra-high SA) was 18.2 ± 2.5% and the “[^11C]ITMM that reached the brain” value ([2]; healthy humans, first-in human PET study) was 0.001–0.004 % of the injection dose/mL. The “total distribution volume (V T)” value ([2]; cerebellum (mGluR1-rich region)) was 2.61 mL/cm^3, the “total distribution volume (V T)” value ([2]; pons (mGluR1-negligible region)) was 0.52 mL/cm^3 and the Ki [3] was 12.6 nM. The AUC ([4]; cerebellum, conventional SA) was 243.2 ± 9.2 SUV · min, the maximum uptake ([4]; cerebellum, conventional SA) was 3.0 SUV and the AUC ([4]; cerebellum, ultra-high SA) was 269.9 ± 15.8 SUV · min. For the same compound, the maximum uptake ([4]; cerebellum, ultra-high SA) was 3.4 SUV, the AUC [4, 5] was 156.9 ± 5.3 SUV · min and the maximum uptake [4, 5] was 2.0 SUV. It also gave an AUC [4, 6] of 184.7 ± 11.1 SUV · min, a maximum uptake [4, 6] of 2.3 SUV and an AUC ([4]; hippocampus, conventional SA) of 160.8 ± 4.6 SUV · min. It also gave a maximum uptake ([4]; hippocampus, conventional SA) of 2.0 SUV, an AUC ([4]; hippocampus, ultra-high SA) of 180.2 ± 10.9 SUV · min and a maximum uptake ([4]; hippocampus, ultra-high SA) of 2.2 SUV. The AUC ([4]; pons, conventional SA) was 56.0 ± 1.6 SUV · min, the maximum uptake ([4]; pons, conventional SA) was 0.9 SUV and the AUC ([4]; pons, ultra-high SA) was 62.7 ± 3.6 SUV · min. It also gave a maximum uptake ([4]; pons, ultra-high SA) of 0.9 SUV, an AUC ([4]; striatum, conventional SA) of 169.7 ± 6.0 SUV · min and a maximum uptake ([4]; striatum, conventional SA) of 2.1 SUV. It also gave an AUC ([4]; striatum, ultra-high SA) of 197.3 ± 11.1 SUV · min, a maximum uptake ([4]; striatum, ultra-high SA) of 2.4 SUV and an AUC [4, 7] of 149.9 ± 6.7 SUV · min. The maximum uptake [4, 7] was 1.8 SUV, the AUC [4, 8] was 178.9 ± 10.8 SUV · min and the maximum uptake [4, 8] was 2.2 SUV. It also gave an AUC ([4]; thalamus, conventional SA) of 188.4 ± 6.9 SUV · min, a maximum uptake ([4]; thalamus, conventional SA) of 2.3 SUV and an AUC ([4]; thalamus, ultra-high SA) of 214.2 ± 12.2 SUV · min. The maximum uptake ([4]; thalamus, ultra-high SA) was 2.6 SUV and the “delay of peak time of radioactivity” value ([4]; ultra-high SA compared with conventional SA, brain regions) was 4 to 10 min.
